Experimental data published in patent publication US10640518B2, “Condensed heterocyclic compounds and pesticides” (Nissan Chemical Corporation, priority 2016, dated 2020).

Experiments:
Format in all cases: in vivo
[1] = system: Plutella xylostella; experiment: Insecticidal test on Plutella xylostella (cabbage leaf soaking); conditions: 144 h, 500 ppm solution, cabbage leaves soaked, 3rd-instar larvae, 6 days after, 25° C.
Description: Test Example 2: Insecticidal Test on Plutella xylostella
(§1) 10% emulsifiable concentrates (or 10% wettable powders) of compounds of the present invention were diluted with water containing a spreader to obtain 500 ppm solutions. Leaves of cabbage were soaked in the solutions for about 10 seconds. After the soaking, the leaves were dried in air and placed in dishes. In each dish, five 3rd-instar larvae of Plutella xylostella were released, and the dishes were covered with lids and placed in an incubator at 25° C. 6 days after, dead insects in the dishes were counted, and the mortality was calculated by using the same equation as in Test Example 1. The test was carried out in duplicate.

[2] = system: Reticulitermes speratus; experiment: Insecticidal test on Reticulitermes speratus (treated river sand); conditions: 240 h, 0.5 ml of 100 ppm solution on 10 g river sand, adults, 10 days after, 25° C.
Description: Test Example 15: Insecticidal Test on Reticulitermes speratus
10% emulsifiable concentrates of the compounds of the present invention were prepared. The emulsifiable concentrates were diluted with water to prepare 100 ppm solutions. 0.5 ml of the solutions were dropped on 10 g of river sand and mixed. In dishes having an inner diameter of 4 cm, 1% agar (2 cm square) was laid, and the treated river sand and a filter paper piece as bait were placed. Adults of Reticulitermes speratus were released in the dishes, and the dishes were placed in an incubator at 25° C. 10 days after, dead insects in the dishes were counted, and the mortality was calculated by using the same equation as in Test Example 1. The test was carried out in duplicate.

[3] = system: Spodoptera litura; experiment: Insecticidal test on Spodoptera litura (cabbage leaf soaking); conditions: 144 h, 500 ppm solution, cabbage leaves soaked, 3rd-instar larvae, 6 days after, 25° C.
Description: Test Example 3: Insecticidal Test on Spodoptera litura
as §1, with “Spodoptera litura” for “Plutella xylostella”

[4] = system: Nilaparvata lugens; experiment: Insecticidal test on Nilaparvata lugens (rice sheath soaking); conditions: 144 h, 500 ppm solution, rice sheaths soaked, 3rd-instar larvae, 6 days after, 25° C.
Description: Test Example 1: Insecticidal Test on Nilaparvata lugens
10% emulsifiable concentrates (or 10% wettable powders) of compounds of the present invention were diluted with water containing a spreader to obtain 500 ppm solutions. Rice sheaths were soaked in the solutions for about 10 seconds. After the soaking, the rice sheaths were dried in air and put in test tubes. In each tube, five 3rd-instar larvae of Nilaparvata luqgens were released, and the tubes were capped with sponge and placed in an incubator at 25° C. 6 days after, dead insects in the test tubes were counted, and the mortality was calculated in accordance with the following equation. The test was carried out in duplicate. Mortality (%)=(the number of dead insects/the number of released insects)×100)

[5] = system: Ctenocephalides felis; experiment: Test on the effect on Ctenocephalides felis (thin film contact); conditions: 96 h, application dose 10 μg/cm^2, adults, 4 days after the release, 25° C.
Description: Test Example 11: Test on the Effect on Ctenocephalides felis
(§2) 3.5 mg of compounds of the present invention were diluted with 3.5 ml of acetone to obtain 1,000 ppm solutions. 350 μl of the solutions were applied to the bottoms and the side walls of glass containers with an inner wall surface area of 35 cm^2, and acetone was volatilized to prepare thin films of the compounds on the inner walls of the glass containers. Since the inner wall surface area of each glass container was 35 cm^2, the application dose was 10 μg/cm^2.
(§3) To each glass container, five adults (male and female) of Ctenocephalides felis were released, and the containers were covered with lids and placed in an incubator at 25° C. 4 days after the release of the fleas, dead fleas were counted, and the mortality was calculated by using the same equation as in Test Example 1.

[6] = system: Nilaparvata lugens; experiment: Systemic insecticidal test on Nilaparvata lugens (root dipping); conditions: 20 ppm solution, rice seedling roots dipped 7 days, 3rd-instar larvae, 6 days after the release
Description: Test Example 7: Systemic Insecticidal Test on Nilaparvata lugens
10% emulsifiable concentrates of compounds of the present invention were diluted with tap water to obtain 20 ppm solutions, and root of rice plug seedlings (at the 2-leaf stage) were dipped in the solutions. 7 days after, the rice seedlings were picked and put in test tubes, and in each tube, five 3rd-instar larvae of Nilaparvata luqens were released, and the tubes were capped with sponge and placed in an incubator at 25° C. 6 days after the release of the insects, dead insects were counted, the and the mortality was calculated by using the same equation as in Test Example 1. The test was carried out in duplicate.

[7] = system: Myzus persicae; experiment: Insecticidal test on Myzus persicae (spray); conditions: 144 h, 500 ppm solution sprayed (2.5 mg/cm^2), apterous adults on cabbage leaves, 6 days after, 25° C.
Description: Test Example 5: Insecticidal Test on Myzus persicae
Wet absorbent cotton was laid on glass dishes having an inner diameter of 3 cm, and covered with leaves of cabbage cut into circles having a diameter of 3 cm, and 4 apterous adults of Myzus persicae were released. After a day, 10% emulsifiable concentrates (or 10% wettable powders) of compounds of the present invention were diluted with water containing a spreader to obtain 500 ppm solutions. The solutions were sprayed from a rotary spray tower (2.5 mg/cm^2), and the dishes were covered with lids and placed in an incubator at 25° C. 6 days after, dead insects were counted, and the mortality was calculated by using the same equation as in Test Example 1. The test was carried out in duplicate.

[8] = system: Aedes albopictus; experiment: Insecticidal test on Aedes albopictus (larvae in well plate); conditions: final concentration 10 ppm, larvae one day after hatching, 3 days after, 25° C.
Description: Test Example 17: Insecticidal Test on Aedes albopictus
2 mg of compounds of the present invention were dissolved in 0.2 ml of dimethyl sulfoxide to prepare 1% (w/v) dimethyl sulfoxide solutions. 0.01 ml of the solutions were mixed with 0.99 ml of pure water to prepare 0.01% (w/v) solutions. To 0.3 ml plastic plates (Cellstar 96 well culture plates, manufactured by Greiner Bio-One International GmbH) as test plates, 0.09 ml of distilled water containing 30 larvae of Aedes albopictus one day after hatching was dropped, and 0.01 ml of the 0.01% (w/v) solutions were dropped so that the final concentration would be 10 ppm. The plates were covered with lids and placed in an incubator at 25° C. 3 days after, dead larvae were counted, and the mortality was calculated by using the same equation as in Test Example 1.

[9] = system: Rhipicephalus sanguineus; experiment: Test on the effect on Rhipicephalus sanguineus (thin film contact); conditions: 96 h, application dose 10 μg/cm^2, protonymphs, 4 days after the release, 25° C.
Description: Test Example 10: Test on the Effect on Rhipicephalus sanguineus
as §2
as §3, with “protonymphs” for “adults”, “Rhipicephalus sanguineus” for “Ctenocephalides felis”, “ticks,” for “fleas,”, “ticks” for “fleas”

[10] = system: Culex pipiens molestus; experiment: Insecticidal test on Culex pipiens molestus (larvae in well plate); conditions: 24 h
Description: Test Example 16: Insecticidal Test on Culex pipiens molestus
2 mg of compounds of the present invention were dissolved in 0.2 ml of dimethyl sulfoxide to prepare 1% (w/v) dimethyl sulfoxide solutions. The solutions were diluted with distilled water by a factor of 100 to prepare 100 ppm solutions. To 1.9 ml plastic plates (Cellstar 24 well plate, manufactured by Greiner Bio-One International GmbH) as test plates, 0.7 ml of water containing 10 to 30 larvae of Culex pipiens molestus one day after hatching, and 0.2 ml of an aqueous suspension of aquarium fish food (TetraMin manufactured by Spectrum Brands Japan) as bait, were dropped. 0.1 ml of the 100 ppm solutions were dropped, and the plates were placed in an incubator at 25° C. 1 day after, dead larvae were counted, and the mortality was calculated by using the same equation as in Test Example 1. The test was carried out in duplicate.

[11] = system: Frankliniella occidentalis; experiment: Insecticidal activity on Frankliniella occidentalis (spray on kidney bean leaves); conditions: 48 h, 500 ppm solution sprayed (2.5 mg/cm^2), larvae on kidney bean leaves, 2 days after
Description: Test Example 4: Insecticidal Activity on Frankliniella occidentalis
In styrol cups having an inner diameter of 7 cm, wet filter paper was laid, kidney bean leaves cut into a 3 cm square were laid on the paper, and each leaf was inoculated with 20 larvae of Frankliniella occidentalis. 10% emulsifiable concentrates (or 10% wettable powders) of compounds of the present invention were diluted with water containing a spreader to obtain 500 ppm solutions. 2.5 ml of the solutions were sprayed from a rotary spray tower into the styrol cups (2.5 mg/cm^2). 2 days after, dead insects were counted, and the insect damage degree on kidney bean leaves was examined. The mortality was calculated by using the same equation as in Test Example 1. The insect damage degree was evaluated from the proportion of the area with insect damage on the leaves, as follows. 1: 0 to 20% insect damage, 2: 20 to 50% insect damage, 3: 50 to 70% insect damage, and 4: 70% or higher insect damage. The test was carried out in duplicate.

| SMILES | mortality at 500 ppm [1] | mortality at 100 ppm [2] | mortality at 500 ppm [3] | mortality at 500 ppm [4] | mortality at 10 µg/cm2 [5] | mortality at 20 ppm [6] | mortality at 500 ppm [7] | mortality at 10 ppm [8] | mortality at 10 µg/cm2 [9] | mortality at 100 ppm [10] | mortality at 500 ppm [11] |
| --- | --- | --- | --- | --- | --- | --- | --- | --- | --- | --- | --- |
| CCS(=O)(=O)c1c2ccc(C(F)(F)F)cc2nn1-c1nc2cc(C(F)(F)F)cnc2n1C [1-10-001a, 2-[3-(ethylsulfonyl)-6-(trifluoromethyl)-2H-indazol-2-yl]-3-methyl-6-(trifluoromethyl)-3H-imidazo[4,5-b]pyridine] | ≥ 90% | ≥ 70% | ≥ 90% | ≥ 90% | ≥ 50% | ≥ 90% | ≥ 90% | – | – | – | – |
| CCS(=O)(=O)c1c(-c2cn3nc(C(F)(F)C(F)(F)F)sc3n2)nn2ccc(C(F)(F)F)cc12 [1-5-001a, 6-[3-(ethylsulfonyl)-5-(trifluoromethyl)pyrazolo[1,5-a]pyridin-2-yl]-2-(perfluoroethyl)imidazo[2,1-b][1,3,4]thiadiazole] | ≥ 90% | – | ≥ 90% | – | ≥ 50% | – | – | ≥ 70% | ≥ 50% | – | – |
| CCS(=O)(=O)c1c(-c2nc3cc(C(F)(F)F)cnc3n2C)nn2cc(-n3ccc(C(F)(F)F)n3)ccc12 [1-1-003a, 2-[3-(ethylsulfonyl)-6-(3-(trifluoromethyl)-1H-pyrazol-1-yl)pyrazolo[1,5-a]pyridin-2-yl]-3-methyl-6-(trifluoromethyl)-3H-imidazo[4,5-b]pyridine] | ≥ 90% | – | ≥ 90% | – | ≥ 50% | – | – | ≥ 70% | – | – | – |
| CCS(=O)(=O)c1c(-c2nc3cc(C(F)(F)F)cnc3n2C)nn2cc(Cl)ccc12 [1-1-001a, 2-[6-chloro-3-(ethylsulfonyl)pyrazolo[1,5-a]pyridin-2-yl]-3-methyl-6-(trifluoromethyl)-3H-imidazo[4,5-b]pyridine] | ≥ 90% | ≥ 70% | ≥ 90% | – | ≥ 50% | ≥ 90% | ≥ 90% | ≥ 70% | ≥ 50% | 100% | – |
| CCS(=O)(=O)c1c(-c2cn3cnc(C(F)(F)C(F)(F)F)cc3n2)nn2ccc(C(F)(F)F)cc12 [1-3-001a, 2-[3-(ethylsulfonyl)-5-(trifluoromethyl)pyrazolo[1,5-a]pyridin-2-yl]-7-(perfluoroethyl)imidazo[1,2-c]pyrimidine] | ≥ 90% | – | ≥ 90% | – | ≥ 50% | – | – | ≥ 70% | ≥ 50% | – | ≥ 50% |
